Assay results: patent publication US9044483B2, “Cell death inhibition by macrophage migration inhibitory factor and a binding substance thereto” (Takeda Pharmaceuticals Company Limited, priority 2006, dated 2015)

Key:
[1] = biological target: T1, rat MIF (Rattus norvegicus, UniProt P30904, G111N); experiment: Binding to rat MIF by surface plasmon resonance (BIACORE 3000), compound immobilized on sensor chip CM5; conditions: 1 μg/ml rat MIF in PBS with 0.005% Tween 20, FIG. 1, FIG. 4
T1 construct: made in house; host or cells: Escherichia coli BL21 (DE3)
Method: The binding of rat MIF obtained in REFERENCE EXAMPLE 2 to Compound A (cf., EXAMPLE 107 of WO 03/020719; see the formula below) was analyzed by BIACORE 3000 (manufactured by Biacore Co., Ltd.).
(§1) After Compound A was immobilized onto a sensor chip CM5 (manufactured by Biacore Co., Ltd.), phosphate buffered saline containing 0.005% Tween 20 containing 1 μg/ml of rat MIF was passed over the chip to assess changes in surface plasmon resonance signal as the binding of the compound to rat MIF.
as §1, with “The binding of rat MIF obtained in REFERENCE EXAMPLE 2 to” for “After”, “C (see the formula below) was analyzed by BIACORE 3000 (manufactured by Biacore Co., Ltd.). In a manner similar to EXPERIMENT 1(1), Compound C” for “A”, “Ltd.) and then,” for “Ltd.),”

[2] = biological target: T2, His-hMIF (Homo sapiens, UniProt P14174); experiment: Binding of His-hMIF (peptide added to N terminus) to immobilized Compound A by BIACORE 3000; conditions: FIG. 5
T2 construct: the region encoding MIF was amplified from human complementary DNA (cDNA) library; made in house; host or cells: Escherichia coli BL21 (DE3)
T2 sequence (P14174 with tags, fused parts or gaps): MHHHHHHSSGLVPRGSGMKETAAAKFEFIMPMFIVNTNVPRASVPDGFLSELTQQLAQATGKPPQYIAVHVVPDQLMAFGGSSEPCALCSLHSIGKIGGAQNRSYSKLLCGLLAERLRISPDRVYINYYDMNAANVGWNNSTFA
Method: (§2) After Compound A was immobilized onto a sensor chip CM5 (manufactured by Biacore Co., Ltd.), HBS-EP buffer (manufactured by Biacore Co., Ltd.) containing 10 μg/ml of hMIF or hMIF-P1S was passed over the chip to assess changes in surface plasmon resonance signal as the binding of the compound to human MIF.
Similarly, the binding of Compound A to His-hMIF added with the peptide to its N terminus, obtained in REFERENCE EXAMPLE 3, was analyzed.

[3] = biological target: T3, hMIF-P1S (Homo sapiens, UniProt P14174); experiment: Binding of modified human MIF (hMIF-P1S) to immobilized Compound A by BIACORE 3000; conditions: 10 μg/ml hMIF or hMIF-P1S in HBS-EP buffer, FIG. 2
T3 construct: the region encoding MIF was amplified from human complementary DNA (cDNA) library; made in house; host or cells: Escherichia coli BL21 (DE3)
T3 sequence (P14174 with tags, fused parts or gaps): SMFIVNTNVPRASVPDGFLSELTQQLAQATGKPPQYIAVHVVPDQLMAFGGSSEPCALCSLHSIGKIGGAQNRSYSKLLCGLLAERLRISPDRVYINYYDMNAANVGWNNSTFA
Method: The binding of human MIF (hMIF) and modified human MIF (hMIF-P1S) obtained in REFERENCE EXAMPLE 1 to Compound A was analyzed by BIACORE 3000 (manufactured by Biacore Co., Ltd.).
as §2

| Structure (SMILES) | binding of the compound to rat MIF (changes in surface plasmon resonance signal) [1] | binding ability of Compound A to human MIF with 30 amino acid-polypeptide containing histidine tag added to the N terminus (His-hMIF), compared with hMIF [2] | binding ability of Compound A to human MIF with N-terminal proline replaced by serine (hMIF-P1S), compared with hMIF [3] |
| --- | --- | --- | --- |
| Cc1cccc2c(=O)nc(-c3cccc(C(=O)NCCCCCCN)n3)sc12 [Compound C, N-(6-aminohexyl)-6-(8-methyl-4-oxo-4H-1,3-benzothiazin-2-yl)pyridine-2 carboxamide] | weaker than that of Compound A | – | – |
| NCCCCCCNC(=O)c1cccc(-c2nc(=O)c3ccccc3s2)n1 [Compound A, N-(6-aminohexyl)-6-(4-oxo-4H-1,3-benzothiazin-2-yl)-2-pyridinecarboxamide] | strongly binds | greatly attenuated | greatly attenuated |
